Values joined by “and” are separate entries in the source; they are usually repeats but may differ in a detail not shown here. Equal entries are not always repeated.
Assays:
[1] = biological target: T1, hTRPV1 (Homo sapiens (Human), UniProt Q8NER1); assay: [3H]RTX competition binding assay (membranes of induced CHO-hTRPV1 cells); details: approximately 2 nM [3H]RTX, 37° C., 60 minutes; read-out: Ki for inhibition of [3H]RTX binding to hTRPV1
Procedure: (§1) Tet-On induced CHO-hTRPV1 cells were cultured in maintaining medium (F12 supplemented with 10% TET-free FBS [Atlanta Biologicals, GA], 25 mM HEPES, 10 μg/ml blasticidin and 250 μg/ml geneticin (all from Invitrogen Life Sciences; Grand Island, N.Y.). TRPV1 protein was induced with induction medium (F12 supplemented with 10% FBS, 25 mM HEPES, and 1 μg/ml tetracycline) as described below for ligand binding and Ca uptake measurements.
Binding studies with [^3H]RTX were carried out as follows. The binding assay mixtures were prepared in 1.5 ml centrifuge tubes and consisted of a fixed concentration (approximately 2 nM) of [^3H]RTX (37 Ci/mmol specific activity, PerkinElmer Life Sciences), various concentrations of competing ligands, and […] of membranes from induced CHO-hTRPV1 expressing cells (approximately 1-3×10^6 cells) in Dulbecco's phosphate buffered saline (DPBS, with Ca^2+ & Mg^2+) for a total volume of 350 μl. The assay mix contained bovine serum albumin at a final concentration of 0.25 mg/ml (Cohn fraction V; Sigma-Aldrich, St. Louis, Mo.). In each set of experiments, nonspecific binding were determined in the presence of 200 nM non-radioactive RTX. The binding reaction was initiated by placing the assay mixture in a 37° C. shaking water bath for 60 minutes ([…]). The assay mixture was then chilled on ice for 2-3 min before adding 100 μl of α1-acid glycoprotein (2 mg/ml; Sigma-Aldrich) and mixed thoroughly. The tubes were kept on ice for an additional 10 min. The bound and free ligands were then separated by centrifugation (12,200 rpm for 15 minutes) in a Beckman Coulter centrifuge Allegra 21R. 200 μl of supernatant was collected for determination of free ligand. The remainder was removed by aspiration. The bottom portion of the tubes containing the membranes was cut off and bound radioactivity determined. Radioactivity was measured by scintillation counting. Data were analyzed using GraphPad Prism. Ki values for compounds were determined by competition for binding of [^3H]RTX to the hTRPV1 and represent the mean SEM of triplicate binding curves. […]

[2] = biological target: T1, hTRPV1; assay: Ca2+ uptake assay, capsaicin antagonism (CHO-hTRPV1 cells); format: cell-based; details: for % inhibition at 30 μM (capsaicin antagonism) / inhibition at 30 µM: compound at 30 μM, capsaicin 30 nM; for Ki: capsaicin (30 nM) stimulated Ca2+ uptake
Procedure: as §1
(§2) CHO-hTRPV1 cells were plated in 24-well plates, reaching 40 to 60% confluence in maintaining medium after 24 hours. The cells were washed once with Dulbecco's phosphate buffered saline (DPBS; Invitrogen, Grand Island, N.Y.) to remove antibiotics, and fresh medium with tetracycline (inducing medium) was added to induce TRPV1 expression. Experiments were done approximately 24 hours after induction. The cells were at least 90% confluent at the time of the assays.
(§3) For agonist Ca^2+ uptake assays, the inducing medium was aspirated and replaced by DMEM (supplemented with bovine serum albumin (0.25 mg/mL), […], and 100 μl of increasing concentrations of the non-radioactive ligand for a total volume of 400 μl/well. The cells were incubated for 5 min in a water bath at 37° C. For uptake measurements by a full agonist, a saturating concentration of capsaicin (3000 nM) was used as a positive control. Immediately after incubation, the assay medium was aspirated and the cells were washed twice with ice cold DPBS (no Ca^2+ & Mg^2+).The cells were then lysed in radioimmunoprecipitation assay buffer (50 mM Tris-Cl pH 7.5, 150 mM NaCl, 1% Triton X-100, 1% SDS, and 1% sodium deoxycholate; 400 μL/well) for at least 40 min on a shaker. Aliquots (300 μL) of the cell lysates were counted in a liquid scintillation counter. Background uptake was determined in the absence of either compound or capsaicin. For the antagonism assays, capsaicin (30 nM) was included along with increasing concentrations of the ligand being evaluated. The cells were incubated for 5 min in a water bath at 37° C. Immediately after incubation, the assay medium was aspirated and the cells were washed twice with ice-cold DPBS (no Ca^2+ & Mg^2+). The cells were then lysed in radioimmunoprecipitation assay buffer for at least 40 min on a shaker. Aliquots of the cell lysate were counted in a liquid scintillation counter. Triplicate points at each concentration of ligand were determined in each experiment. Compounds were initially screened at a concentration of 30 µM. Compounds showing greater than 10% agonism/antagonism were evaluated in triplicate experiments. As indicated, full dose response curves for compounds showing activity were performed at least three times. Data was analyzed using GraphPad Prism.

[3] = biological target: T1, hTRPV1; assay: Agonist Ca2+ uptake assay (CHO-hTRPV1 cells); format: cell-based
Procedure: as §1, §2
as §3, with “The cells were incubated for 5 min in a water bath at 37° C. Immediately after incubation, the assay medium was aspirated and the cells were washed twice with ice-cold DPBS (no Ca^2+ & Mg^2+). The cells were then lysed in radioimmunoprecipitation assay buffer for at least 40 min on a shaker.” left out, “Triplicate points at each concentration of ligand were determined in each experiment. Compounds were initially screened at a concentration of 30 µM. Compounds showing greater than 10% agonism/antagonism were evaluated in triplicate experiments. As indicated, full dose response curves for compounds showing activity were performed at least three times.” left out

[4] = biological target: cannabinoid receptor 2 (CB2) (Homo sapiens (Human), UniProt P34972); assay: Binding at the cannabinoid receptor 2 (CB2)
Sequence of cannabinoid receptor 2 (CB2) (P34972 whole entry, species assumed): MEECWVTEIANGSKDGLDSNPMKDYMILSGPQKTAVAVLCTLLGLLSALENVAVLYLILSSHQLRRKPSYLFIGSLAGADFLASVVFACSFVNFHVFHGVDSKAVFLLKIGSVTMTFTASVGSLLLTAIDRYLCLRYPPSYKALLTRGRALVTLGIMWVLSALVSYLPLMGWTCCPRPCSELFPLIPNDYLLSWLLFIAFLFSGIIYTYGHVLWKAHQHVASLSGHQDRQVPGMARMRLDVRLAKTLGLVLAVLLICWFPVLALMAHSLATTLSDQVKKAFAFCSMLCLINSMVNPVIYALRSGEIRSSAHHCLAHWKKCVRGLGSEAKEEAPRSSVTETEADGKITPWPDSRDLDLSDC

T1 sequence (Q8NER1 whole entry): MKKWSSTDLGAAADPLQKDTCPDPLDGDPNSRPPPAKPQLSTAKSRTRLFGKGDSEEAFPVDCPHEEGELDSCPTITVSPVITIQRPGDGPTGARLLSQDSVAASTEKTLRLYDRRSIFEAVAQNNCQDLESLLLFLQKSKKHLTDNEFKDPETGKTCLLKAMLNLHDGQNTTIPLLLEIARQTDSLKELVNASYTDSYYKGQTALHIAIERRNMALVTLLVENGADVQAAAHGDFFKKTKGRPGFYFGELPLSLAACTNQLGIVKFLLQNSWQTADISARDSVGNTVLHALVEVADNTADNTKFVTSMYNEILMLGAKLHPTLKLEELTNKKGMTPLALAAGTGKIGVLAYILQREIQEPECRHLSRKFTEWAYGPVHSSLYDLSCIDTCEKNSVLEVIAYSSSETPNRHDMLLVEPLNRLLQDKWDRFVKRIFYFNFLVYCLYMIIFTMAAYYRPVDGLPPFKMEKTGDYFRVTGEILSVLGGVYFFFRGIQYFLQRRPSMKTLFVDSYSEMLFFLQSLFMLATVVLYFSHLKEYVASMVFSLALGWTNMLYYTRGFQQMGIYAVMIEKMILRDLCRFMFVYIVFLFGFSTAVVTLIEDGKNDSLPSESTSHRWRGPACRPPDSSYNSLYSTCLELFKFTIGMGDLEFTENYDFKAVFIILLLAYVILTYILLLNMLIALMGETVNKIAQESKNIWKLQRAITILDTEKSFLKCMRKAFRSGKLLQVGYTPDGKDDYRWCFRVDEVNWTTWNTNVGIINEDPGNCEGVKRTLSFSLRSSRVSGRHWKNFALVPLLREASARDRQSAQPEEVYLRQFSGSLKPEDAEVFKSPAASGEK

| inhibition at 30 µM [2] | Ki [2] | SMILES | further results |
| --- | --- | --- | --- |
| 32 ± 8% |  | NC(=O)c1ccccc1NC(=O)Nc1ccc(F)cc1 [Compound 3] |  |
| 64.5% | 11.7 ± 1.3 µM | CCOC(=O)c1ccc(NC(=O)Nc2cccc(Cl)c2)cc1 [Compound 4] |  |
| 34 ± 7% |  | CCOC(=O)c1ccc(NC(=O)Nc2cc(Cl)ccc2C)cc1 [Compound 6] |  |
| 33 ± 7% |  | COc1ccc(Cl)cc1NC(=O)Nc1ccc(CCO)cc1 [Compound 7] |  |
|  | 3.7 ± 1.7 µM | CSc1ccc(NC(=O)Nc2ccc(Cl)cc2[N+](=O)[O-])cc1 [Compound 11] | % inhibition at 30 μM (capsaicin antagonism) [2]: 61 ± 18% |
|  | 0.47 ± 0.18 µM | O=C(Nc1ccc(F)c([N+](=O)[O-])c1)Nc1cccc2c(O)cccc12 [Compound 14] | Ki [1]: 0.65 ± 0.26 µM; % inhibition at 30 μM (capsaicin antagonism) [2]: 100 ± 0%; Ki [4]: 15.9 µM |
| 12.7 ± 1% |  | CCN(CC)c1ccc(CNS(=O)(=O)c2ccc(NC(C)=O)cc2)cc1 [XIE1-203Y, N-(4-(N-(4-(diethylamino)benzyl)sulfamoyl)phenyl)acetamide] |  |

The next lines start with the molecule.

| SMILES | inhibition at 30 µM [2] | Ki [2] | further results |
| --- | --- | --- | --- |
| O=C(Nc1cccc(C(F)(F)F)c1)Nc1ccc([N+](=O)[O-])cc1Cl [Compound 1] | 98.2 ± 2.7% |  | Ki [1]: 1.11 ± 0.21 µM; % inhibition at 30 μM (capsaicin antagonism) [2]: 92.2 ± 2.7% |
| Cc1cc([N+](=O)[O-])ccc1NC(=O)Nc1cccc(F)c1 [Compound 2] | 79.9 ± 4.9% | 4.5 µM and 4.52 µM | Ki [1]: 5.2 ± 0.32 µM; Ki ([2]; listed as compound 2): 4.5 ± 0.88 µM |
| CCOC(=O)c1ccc(NC(=O)Nc2ccc(F)cc2)cc1 [Compound 5] |  |  | functional character at hTRPV1 [3]: partial agonist; EC50 ([3]; Ca2+ uptake, CHO-hTRPV1 cells, read-out: EC50 for capsaicin agonism): 2.84 ± 0.21 µM; Emax ([3]; relative to 3000 nM capsaicin, read-out: maximal stimulation, % of that by 3000 nM capsaicin (% agonism)): 55.7 ± 7.8% |
| COc1ccc(C)cc1NC(=O)Nc1ccccc1F [Compound 8] | 28 ± 6% |  |  |
| Cc1cc(O)c(C(C)C)cc1NC(=O)Nc1ccc(Br)cc1 [Compound 9] | 27 ± 14% |  |  |
| Cc1ccc(Cl)cc1NC(=O)Nc1cccc2c(O)cccc12 [Compound 13] | 72% | 3.7 ± 1 µM |  |
| Cc1c(Cl)cccc1NC(=O)Nc1cccc2c(O)cccc12 [Compound 15] | 99.6% | 0.49 ± 0.14 µM | Ki [4]: 1.39 µM |
| Cc1c(Cl)cccc1NC(=O)Nc1cccc(O)c1 [Compound 16] | 100% | 0.56 ± 0.16 µM | Ki [4]: 12.2 µM |
| O=C1C(=O)c2cc(Br)cc([N+](=O)[O-])c2-c2ccc(Br)cc21 [Compound 17] |  | 2.15 ± 0.72 µM | % inhibition at 30 μM (capsaicin antagonism) [2]: 66 ± 11% |
| O=C(Nc1cc(C(F)(F)F)ccc1Cl)c1ccccc1F [Compound 18] | 51.8% | 7 ± 2 µM |  |
